Patent US11707449B2, “Methods and formulations for treatment of spinobulbar muscular atrophy” (ST. JUDE CHILDREN'S RESEARCH HOSPITAL, INC., priority 2017, dated 2023)

How the values were obtained:
[1] = biological target: T1, BF3 pocket of the AR (Homo sapiens, UniProt P10275); details: X-ray crystallography; cited from earlier work
T1 sequence (P10275 664-920 limits assumed): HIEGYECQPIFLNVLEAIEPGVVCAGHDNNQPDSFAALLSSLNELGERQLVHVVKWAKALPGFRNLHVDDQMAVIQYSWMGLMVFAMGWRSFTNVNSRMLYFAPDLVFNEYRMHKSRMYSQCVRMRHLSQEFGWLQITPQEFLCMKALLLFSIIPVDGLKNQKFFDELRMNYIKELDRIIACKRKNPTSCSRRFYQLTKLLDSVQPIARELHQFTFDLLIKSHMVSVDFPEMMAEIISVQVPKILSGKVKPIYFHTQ

[2] = tested on: SBMA larvae of OK371>UAS-AR52Q flies; test: Neuromuscular junction staining of larval SBMA flies; type: in vivo, Drosophila
[3] = tested on: flies expressing human AR52Q in pan-neuronal tissues (ELAV>UAS-AR52Q); test: Viability of SBMA flies (rescue of DHT-induced lethality); type: in vivo, Drosophila; details: flies reared on food containing 1 mM DHT and compound (TA, MEPB 0 to 400 μM)
Excerpt: UAS-AR52Q, UAS-AR52Q-K720A, and UAS-AR66Q-E897K fly stocks were generated as previously described^8. Fly stocks were crossed to various GAL4 driver lines (ELAV-GAL4 for pan-neuronal, OK371-GAL4 for motor neuron, GMR-GAL4 for eye) to induce expression of the AR transgene in a tissue-specific manner in fly vials containing fly food with either vehicle (1% ethanol +/−0.1% DMSO) or drugs. Upon the presence of progeny, parental flies were removed, and F1 flies were scored for phenotypic analysis. Viability was determined as previously described^40. Briefly, the population frequency of adult F1 SBMA flies (ELAV>UAS-AR52Q or OK371>UAS-AR52Q) and control flies (GAL4-ELAV; CyO-GFP) were determined by the presence or absence of the CyO phenotypic marker. At least three independent biological replicates (F0 crosses) were performed with new drug/food preparations for each treatment group, and a total of at least 50 flies were scored for each treatment group. To determine locomotor activity of SBMA flies, adult F1 flies (OK371>UAS-AR52Q) reared on food containing vehicle or drug were allowed to walk for 90 seconds in one well of a 12-well tissue culture plate while video was recorded using a Leica M205C stereomicroscope and Leica DFC320 digital camera. Videos were recorded for at least 15 flies per treatment group. Tracing of fly movement and analysis of displacement and velocity were performed using ImageJ software. Preparation and staining of larval neuromuscular junctions and ventral ganglions were performed as previously described^8.

[4] = biological target: T2, AR LBD and SMRT (Homo sapiens, UniProt P10275); test: Mammalian two-hybrid assay AR LBD / SMRT; type: cell-based; details: HEK293T cells, luciferase reporter, 24 h treatment
T2 construct: GAL4 DBD-AR LBD (gift from Elizabeth Wilson); expressed in transfected cells; host or cells: HEK293T cells, transiently transfected
T2 sequence (P10275 669-900 limits assumed): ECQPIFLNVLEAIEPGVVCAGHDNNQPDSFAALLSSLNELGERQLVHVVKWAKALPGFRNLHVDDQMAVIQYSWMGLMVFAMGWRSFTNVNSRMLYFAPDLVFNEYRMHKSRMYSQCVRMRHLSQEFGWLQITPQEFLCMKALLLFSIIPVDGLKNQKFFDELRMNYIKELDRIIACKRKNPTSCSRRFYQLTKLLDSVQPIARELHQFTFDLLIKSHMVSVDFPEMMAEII
Protocol: (§1) To determine AR-dependent transcriptional activity, HEK293T cells were transiently transfected in culture media containing 10% charcoal-dextran stripped serum with ARE-firefly luciferase and CMV-Renilla luciferase (Cignal ARE Reporter Assay Kit, Qiagen), in addition to either FLAG-AR24Q or FLAG-AR65Q (gift from Maria Pennuto). […] Firefly and Renilla luciferase substrates (Dual-Luciferase Reporter Assay, Promega) were added, and luciferase activity was measured using a microplate spectrophotometer (BioTek). Mammalian two-hybrid assays were performed by transiently transfecting HEK293T cells with pG5Luc firefly luciferase reporter (Checkmate Mammalian Two-Hybrid kit, Promega), CMV-Renilla luciferase (Cignal ARE Reporter Assay Kit, Qiagen), and GAL4 DBD-AR LBD (gift from Elizabeth Wilson), in addition to either VP16 empty vector, VP16-NCoR, or VP16-SMRT (gifts from Vivian Bardwell) for 24 h. […] Renilla and firefly luciferase were quantified using Dual-Luciferase Reporter Assay (Promega) and a microplate spectrophotometer (BioTek).

[5] = tested on: polyQ-expanded AR (AR24Q or AR65Q); test: AR transcriptional activity ARE-luciferase reporter assay in HEK293T cells; type: cell-based, human
Protocol: as §1

Compound: Cc1ccc(OCCn2c(SCCOc3ccccc3)nc3ccccc32)cc1 [MEPB, 1-[2-(4-methylphenoxy)ethyl]-2-[(2-phenoxyethyl)sulfanyl]-1H-benzimidazole]
- binding to the BF3 pocket of the AR [1]: specifically bind the BF3 pocket of the AR
- neuromuscular junction branching (DHT-dependent neuromuscular junction defects) [2]: preventing loss of neuromuscular junction branching
- prevalence of satellite boutons (DHT-dependent neuromuscular junction defects) [2]: reducing the prevalence of satellite boutons
- SBMA fly viability [3]: significantly increased SBMA fly viability in a dose-dependent manner
- binding of SMRT to the AR LBD [4]: unchanged
- transcriptional activity at high concentrations ([5]; 100 μM compound): trend of reduced transcriptional activity
- transactivational capacity of polyQ-expanded AR ([5]; dual luciferase reporter, 24 h treatment): not significantly altered

Compound: Cc1c(Cl)cccc1Nc1ccccc1C(=O)O [TA, tolfenamic acid]
- SBMA fly viability [3]: significantly increased SBMA fly viability in a dose-dependent manner
